Key:
[1] = cited from earlier work
[2] = in vivo monitoring of radiolabeled analyte uptake in tissue with subcutaneous fiber optic beta radiation probes
Method: The labeled glucose can be injected into the tail vein of test animals (such as rats) in a single bolus.
FIG. 11A illustrates a response profile graph (an integrated counts (above threshold) over time profile) taken over a monitored time period of about 85 minutes (study #2). The counts were taken on a thirty seconds/sample count time frame. In this experiment, a fiber optic probe was positioned subcutaneously in “normal” or non-cancerous tissue in the back of a Fisher 344 rat. A dose of 50 μCi of ^14C-2DG was injected in the tail vein. The data was monitored for about 85 minutes. […] The initial portion of the graph has values that represent “baseline” or dark current.
FIGS. 11B-11C illustrate graphs of data obtained using two probes, each placed subcutaneously in normal tissue of a 190 gram female Fisher 344 rat, one placed in the flank/inguinal and the other in the scapula (study #4). […] In this experiment, a bolus of 200 μCi of ^14C 2-DG was administered via intra-peritoneal (IP) injection. The data was monitored for about 96 minutes.

Compound: O=c1[nH]cc(F)c(=O)[nH]1 [5-FU, 5-Fluorouracil]
- lesions in which enhanced trapping was noted ([1]; PET with O-15 labeled water and 5-[F-18]FU): 70%

Compound: O=c1[nH]cc([18F])c(=O)[nH]1 [5-[F-18]FU]
- liver parenchyma uptake at the end of the acquisition time, relative to the maximum ([1]; PET, 120-minute acquisition time): 25%
- uptake in the metastases ([1]; PET, during the 120-minute acquisition time): low and relatively constant
- mean uptake in metastases relative to liver uptake at the same time interval ([1]; PET, liver metastases): one-third
- time of highest uptake in normal liver parenchyma after onset of the infusion of the tracer ([1]; PET, normal liver parenchyma): about 30 minutes

Compound: C-14 labeled 2-deoxyglucose [^14C-2DG]
- time from injection at which counts reached a plateau ([2]; 50 μCi injected in tail vein, probe subcutaneous in normal tissue in back of Fisher 344 rat, study #2, FIG. 11A): about 10 minutes
- concentration in scapula region compared to flank region ([2]; 200 μCi bolus intra-peritoneal, two probes subcutaneous in normal tissue, 190 gram female Fisher 344 rat, monitored about 96 minutes, study #4, FIG. 11B): higher concentrations were obtained in the scapula region compared to the flank region
- time range in which peak or maxima point of concentration is reached (observed points) ([2]; 200 μCi intra-peritoneal, flank/inguinal normal tissue probe, study #4, FIG. 11C): 20 to 50 min
